Assay results reported in ChEMBL document CHEMBL1131928, “On the relationship of OSW-1 to the cephalostatins” (1999).
Structures can show the parent of a compound that is named as a salt.

Assays:
Type in all cases: functional
Settings in all cases: Homo sapiens, read-out: ED50 (the source's name)
[1] = system: A498; assay: Cytotoxicity against A-498 cell line in the purdue cell culture screen was determined
[2] = system: A549; assay: Cytotoxicity against A-549 cell line in the purdue cell culture screen was determined
[3] = system: HT-29; assay: Cytotoxicity against HT-29 cell line in the purdue cell culture screen was determined
[4] = system: NCI/ADR-RES; assay: Cytotoxicity against MCF-7ADR cell line in the purdue cell culture screen was determined
[5] = system: MCF7; assay: Cytotoxicity against MCF-7 cell line in the purdue cell culture screen was determined
[6] = system: PC-3; assay: Cytotoxicity against PC-3 cell line in the purdue cell culture screen was determined
[7] = system: MIA PaCa-2; assay: Cytotoxicity against PACA-2 cell line in the purdue cell culture screen was determined
[8] = system: MCF7R; assay: Cytotoxicity against MCF-7R cell line in the purdue cell culture screen was determined

Structure (SMILES)	EC50 [1] [µM]	EC50 [2] [µM]	EC50 [3] [µM]	EC50 [4] [µM]	EC50 [5] [µM]	EC50 [6] [µM]	EC50 [7] [µM]	EC50 [8] [µM]
CC(=O)O[C@H]1CC[C@@]2(C)[C@@](C)(CCC3[C@]2(C)CC[C@]2(C)[C@@](O)([C@H](C)C4(CCC(C)C)OCCO4)[C@H](O)C[C@@]32C)C1 (stereo not given in full)	16	30	29	42	23	17	23	31
CC(=O)O[C@H]1CC[C@@]2(C)C(=CCC3[C@]4(C)C[C@H](O)[C@](O)([C@H](C)C5(CCC(C)C)OCCO5)[C@@]4(C)CC[C@@]32C)C1 (stereo not given in full)	2.8	15	4.8	> 64	> 60	10	11	33
CC(C)CCC1([C@@H](C)[C@@]2(O)[C@@H](O)C[C@@]3(C)C4CC[C@]5(C)Cc6nc7c(nc6C[C@]5(C)[C@]4(C)CC[C@]23C)C[C@@]2(C)CCC3[C@@H]4C[C@@H]5OC6(O[C@](C)(CO)C[C@H]6O)[C@@H](C)[C@]5(O)[C@@]4(C)[C@H](O)C[C@]3(C)[C@@]2(C)C7)OCCO1 (stereo not given in full)	1.1	2.9	0.22	–	–	1.1	2.4	0.62
CC(C)CCC(=O)[C@@H](C)[C@@]1(O)C(=O)C[C@@]2(C)C3CC[C@@]4(C)C[C@@H](O)CC[C@]4(C)[C@@]3(C)CC[C@@]21C (stereo not given in full)	19.3	105	1.6	100	130	5.6	30	55
CC(=O)O[C@H]1CC[C@@]2(C)C(=CCC3[C@]4(C)CC(=O)[C@](O)([C@H](C)C5(CCC(C)C)OCCO5)[C@@]4(C)CC[C@@]32C)C1 (stereo not given in full)	2.8	15	0.5	26	28	3.7	2.2	11
CC(C)CCC1([C@@H](C)[C@@]2(O)[C@H](O)C[C@@]3(C)C4CC[C@@]5(C)C[C@@H](O)CC[C@]5(C)[C@@]4(C)CC[C@]23C)OCCO1 (stereo not given in full)	1.7	13	3	28	2.4	39	6.4	7.1
COc1cccc2c1C(=O)c1c(O)c3c(c(O)c1C2=O)C[C@@](O)(C(=O)CO)C[C@@H]3O[C@H]1C[C@H](N)[C@H](O)[C@H](C)O1 [DOXORUBICIN HYDROCHLORIDE]	3.5	6.2	3.7	1.5	3.4	5.7	6.3	0.6
CC(=O)O[C@H]1CC[C@@]2(C)[C@@](C)(CCC3[C@]2(C)CC[C@@]2(C)[C@@]3(C)CC(=O)[C@]2(O)[C@H](C)C2(CCC(C)C)OCCO2)C1 (stereo not given in full)	15	31	7.5	70	39	580	88	89
CC(C)CCC1([C@@H](C)[C@@]2(O)C(=O)C[C@@]3(C)C4CC[C@@]5(C)C[C@@H](O)CC[C@]5(C)[C@@]4(C)CC[C@@]32C)OCCO1 (stereo not given in full)	2.4	17	2.1	13	5.6	43	23	6.5
CC(C)CCC1([C@@H](C)[C@@]2(O)[C@@H](O)C[C@@]3(C)C4CC[C@@]5(C)Cc6nc7c(nc6C[C@]5(C)[C@@]4(C)CC[C@]23C)C[C@]2(C)CCC3C4=C[C@@H]5OC6(CC(C)(C)CO6)[C@@H](C)[C@@H]5[C@@]4(C)[C@H](O)C[C@]3(C)[C@@]2(C)C7)OCCO1 (stereo not given in full)	3.1	0.1	> 2.6	–	–	0.3	> 2.2	1
C[C@@H]1[C@]2(O[C@H]3C=C4[C@@H]5CC[C@H]6Cc7nc8c(nc7C[C@]6(C)[C@H]5C[C@@H](O)[C@]4(C)[C@]31O)C[C@@H]1CC[C@H]3C4=CC[C@@H]5[C@H](C)[C@@]6(OC[C@]45C(=O)C[C@@H]3[C@@]1(C)C8)OC(C)(C)C[C@H]6O)O[C@](C)(CO)C[C@H]2O [CEPHALOSTATIN 1]	–	–	–	4.1	–	1.4	4	–
CO/N=C1\C[C@]2(C)CCC3C4=C[C@@H]5OC6(CC(C)(C)CO6)[C@@H](C)[C@@H]5[C@@]4(C)[C@H](O)C[C@]3(C)[C@@]2(C)C[C@H]1N (stereo not given in full)	3.1	5.9	7.8	76	14	14	14	–
CC(C)CCC1([C@@H](C)[C@@]2(O)[C@@H](O)C[C@@]3(C)C4CC[C@@]5(C)C[C@@H](O)CC[C@]5(C)[C@@]4(C)CC[C@]23C)OCCO1 (stereo not given in full)	1.3	0.34	0.58	–	–	0.4	1.2	1.6
CC(C)CCC(=O)[C@@H](C)[C@@]1(O)[C@H](O)C[C@@]2(C)C3CC[C@@]4(C)C[C@@H](O)CC[C@]4(C)[C@@]3(C)CC[C@]12C (stereo not given in full)	2.4	17	2.1	13	5.6	43	23	6.5
